In patent US20240058298A1, “GENISTEIN FOR USE IN THE TREATMENT OF FOCAL SEGMENTAL GLOMERULOSCLEROSIS (FSGS)” (Delta 4 GmbH, priority 2020, published 2024):

Tested on: adriamycin induced nephropathy (FSGS model)
Assay: Adriamycin induced nephropathy mouse model of FSGS, proteinuria (UPCR, UACR) in spot urine
Type: in vivo, Female Balb/c mice
Conditions: for urinary protein to creatinine ratio (UPCR): Balb/c mice, adriamycin 10.5 mg/kg i.v., chow + genistein 500 mg/kg (about 80 mg/kg mouse/day) from day 2, weekly spot urine, vs control chow
Description: For biological testing of genistein, the accepted mouse models of FSGS, was chosen, i.e. the adriamycin induced nephropathy. […] All animal experiments and handling were in accordance with the Austrian law for protection of animals and approved by the animal ethics committee of the Austrian ministry for science and research.
Adriamycin (Doxorubicin; Sigma, D1515-10 mg) was diluted in ddH2O. To induce FSGS, a dose of 10.5 mg/kg mouse was injected i.v. into the tail vein using 27G needles, i.e. a total volume of 200 μl volume per 25 g mouse.
For tail vein injection, mice were anaesthetized using Ketanest (Pfizer, 25 mg/ml vials) and Rompun (Bayer, 20 mg/ml injection solution). A final mix of 12.5 mg/ml Ketanest and 0.25% Rompun in 0.9% NaCl solution was prepared and 200 μl/25 g mouse were injected. Genistein (Selleckchem, S1342) was used for therapy experiments.
Female Balb/c mice were obtained from the animal breeding facility of the Medical University (Abteilung kw Labortierkunde, Himberg, Austria). 8-18 weeks old animals with a weight >17g were used for the experiments and adjusted for weight and age. Animals were allowed acclimatization of at least 7 days. Animal were marked by ear or toe clip codes to allow identification. Adriamycin nephropathy in Balb/c mice is the most commonly used animal model for preclinical FSGS studies and shares the central features with human FSGS.
Standard commercial chow from ssniff (ssniff Spezialdiäten GmbH, Soest, Germany) contained crude protein (19%), crude fat (3.3%), crude fiber (4.9%), crude ash (6.4%), starch (36.5%), sugar (4.7%). Control group animals were fed standard chow, test group animals standard chow+genistein (500 mg/kg) produced by ssniff. All animals were allowed to eat ad libitum assuming a daily average uptake of about 4 grams/mouse (according to animal care guideline of the Johns Hopkins University, Baltimore, MD, USA; http://web.jhu.edu/animalcare/ procedures/mouse.html), i.e. about 80 mg genistein/kg mouse/day (Odle et al. 2017).
Spot urine was collected every week and Creatinine and protein levels were measured in the Clinical Institute for Laboratory Medicine of the Medical University Vienna.
Urinary albumin was measured by ELISA. 96-well plates were coated over night at 4° C. with 100 μl antibody solution Anti Mouse Serum Albumin antibody (Abcam ab34807, Lot GR3242102-4; diluted 1:2,000) in coating buffer (3.7g NaHCO3; 0.64 g Na2CO3; 1L distilled water). The remaining procedure was performed at room temperature. Wells were washed 3× with HBSS (Sigma H8264-500ML) +0,05% Tween-20 (Bio-Rad, #1706531) and blocked in ELISA/ELISPOT Diluent (eBioscience, 00-4202-56) and washed again for 3×. Samples and standard curve were both diluted in ELISA/ELISPOT diluent were incubated for 2 h, followed by 3 wash steps with HBSS+0.05% Tween-20, incubated with HRP antibody Anti Mouse Serum Albumin antibody (Abcam ab19195, Lot GR3242102-4; diluted 1:100,000) for 1 h, followed by 5 was steps. Reaction was developed with TMB One Solution (Promega, G7431) and stopped with 2N H2SO4. Standard curves were generated with Mouse Albumin (Merck/Sigma, 126674-25MG). 450nm absorbance was measured on an Epoch Microplate reader (BioTek) using Gen5 1.10 software.
R version 4.0.2 was used for statistical analysis. Student's t-test was used for comparing UPCR and UACR values between samples from treated and control mice for each individual time point and to assess differences in histological parameters. […]

O=c1c(-c2ccc(O)cc2)coc2cc(O)cc(O)c12 [Genistein, 5,7-Dihydroxy-3-(4-hydroxyphenyl)chromen-4-one]
urinary protein to creatinine ratio (UPCR): marked amelioration | urinary protein to creatinine ratio (UPCR) (listed as compound of the present invention): significantly lowered | Proteinuria (adriamycin FSGS mice, genistein chow vs control): Significantly Reduces | impact of genistein treatment over time on outcome determined based on UPCR levels (repeated measures ANOVA) (adriamycin FSGS mice, genistein chow vs control, all collected urines (FIG. 1)): significant beneficial impact | urine albumin/creatinine ratio (UACR) (animal studies, urinary albumin by ELISA, genistein vs control): significantly lowered
